In patent US6348487B1, “2-phenyl benzimidazole derivatives as MCP-1 antagonists” (Millennium Pharmaceuticals, Inc., priority 1996, dated 2002):
Where “and” joins values, the source holds several entries; their conditions need not be identical. Identical values can stand only once.

Tested on: not given
Assay: not given
Details: not given

Molecule	melting point
CN(CCN1CCCCC1)c1ccc(-c2nc3ccc(Cl)c(Cl)c3[nH]2)cc1 [Example 8, [4-(6,7-Dichloro-1H-benzoimidazol-2-yl)-phenyl]-methyl-(2-piperidin-1-yl-ethyl)-amine]	164 °C
COc1ccc2nc(-c3ccc(N(C)CCN4CCCCC4)cc3)[nH]c2c1.Cl.Cl	273 °C
CN(CCN1CCCCC1)c1ccc(-c2nc3ccc(Cl)cc3[nH]2)cc1 [Example 4, [4-[6-Chloro-1H-benzoimidazol-2-yl)-phenyl]-methyl-(2-piperidin-1-yl-ethyl)-amine]	196 °C
CN(CCN1CCCCC1)c1ccc(-c2nc3cc(Cl)c(Cl)cc3[nH]2)cc1 [Example 2, N-[4-(5 ,6-dichloro-1H-benzimidazol-2-yl)-phenyl]-N-methyl-N-(2-piperidin-1-yl-ethyl)-amine]	165 to 167 °C
Cc1cc2nc(-c3ccc(N(C)CCN4CCCCC4)cc3)[nH]c2cc1C [Example 7, [4-(5,6-Dimethyl-1H-benzoimidazol-2-yl)-phenyl]-methyl-(2-piperidin-1-yl-ethyl)-amine]	194 to 196 °C
CN(CCN1CCCCC1)c1ccc(-c2nc3cc(Cl)c(F)cc3[nH]2)cc1 [Example 5, [4-(5-Chloro-6-fluoro-1H-benzoimidazol-2-yl)-phenyl]-methyl-(2-piperidin-1-yl-ethyl)-amine]	167 to 168 °C
Cc1ccc2nc(-c3ccc(N(C)CCN4CCCCC4)cc3)[nH]c2c1 [Example 6, Methyl-[4-(6-methyl-1H-benzoimidazol-2-yl)-phenyl]-(2-piperidin-1-yl-ethyl)-amine]	165 °C
CN(CCN1CCCCC1)c1ccc(C2=Nc3ccc(Cl)cc3C2)cc1 [Example 10, [4-(5-Chloro-3H-indol-2-yl)-phenyl]-methyl-(2-piperidin-1-yl-ethyl)-amine]	192 °C

Tested on: T lymphocyte blast cells (CD3-Blasts)
Assay: CD3-Blast Chemotaxis Assay (transendothelial migration to MCP-1)
Type: cell-based, human
Details: 10 μM compound; MCP-1 about 10 nM; ECV304 endothelial coated Transwells
Text: Recombinant human MCP-1 was obtained from Peprotech (Rockey Hill, N.J.). T lymphocyte blast cells (CD3-Blasts) were generated by standard protocols (Coligan, J. E., A. M. Kruisbeek, D. H. Macgulies, E. M. Shevach, and W. Strober, editors. 1992. Current Protocols in Immunology. John Wiley and Sons, New York 7.1.2, 7.10.1-7.10. 10). Briefly, human peripheral blood mononuclear cells (PBMC) were isolated from heparinized venous blood by Percoll density gradient centrifugation (d=1.088) at room temperature. RBCs were removed by hypotonic lysis or dextran sedimentation. Blast cells were generated by incubating 2×10^6 PBMC in 24-well tissue culture plates that were coated with 2.5 μg of an anti-CD3 monoclonal antibody (identified as TR66, a gift from Dr. A. Lanzivecchia; similar monoclonal antibody is HIT3a, from Parmingen #30111A) at 37° C. for 48 to 72 hours, and then transferring 12 wells to T25 or T75 flasks with RPMI (Roswell Park Memorial Institute 1640, a growth cell medium available from Gibco/RBL, Inc., New York)+10% FCS (fetal calf serum)+50 units/ml IL-2. The cells are expanded and cultured for up to 3 weeks. CD3-Blast chemotaxis was assessed no sooner than 3 to 4 days after transfer to the IL-2 containing medium using a modification of a transendothelial migration assay (Carr. M. W., S. J. Roth, B. Luther, S. S. Rose, and T. A. Springer. 1994. Monocyte chemoattractant protein 1 acts as a T-lymphocyte chemoattractant. Proc. Natl. Acad. Sci. USA 91:3652-6). The endothelial cells used for this assay were the endothelial cell line ECV304. (ECV304 was from the European Collection of Animal Cell Cultures, Porton Downs, UK, assession #92091712). Endothelial cells were cultured on 6.5 mm diameter Transwell culture inserts (Costar) with a […] pore size. […] Background migration was determined by counting cells that migrated in the absence of MCP-1 in the lower chamber. […] The percent inhibition by compounds of directed migration was determined by the following formula: [drawing 32] […]

Molecule	% Inhibition of Chemotaxis at 10 μM
CN(CCN1CCCCC1)c1ccc(-c2nc3cc(Cl)c(Cl)cc3[nH]2)cc1 [Example 2, N-[4-(5 ,6-dichloro-1H-benzimidazol-2-yl)-phenyl]-N-methyl-N-(2-piperidin-1-yl-ethyl)-amine]	100% and 102%
N-[4-(5,6-dichloro-1H-benzimidazol-2-yl)-phenyl]-N-(2-diethylaminoethyl)-N-methyl, N-diethyl-ethane-1,2-diamine [Example 3]	95% and 102%

Molecular target: T1, MCP-1 receptor (Homo sapiens, UniProt P41597)
T1 construct: host or cells: THP-1 (human monocytic cell line), membrane preparation
T1 sequence (P41597 1-360 isoform P41597-2): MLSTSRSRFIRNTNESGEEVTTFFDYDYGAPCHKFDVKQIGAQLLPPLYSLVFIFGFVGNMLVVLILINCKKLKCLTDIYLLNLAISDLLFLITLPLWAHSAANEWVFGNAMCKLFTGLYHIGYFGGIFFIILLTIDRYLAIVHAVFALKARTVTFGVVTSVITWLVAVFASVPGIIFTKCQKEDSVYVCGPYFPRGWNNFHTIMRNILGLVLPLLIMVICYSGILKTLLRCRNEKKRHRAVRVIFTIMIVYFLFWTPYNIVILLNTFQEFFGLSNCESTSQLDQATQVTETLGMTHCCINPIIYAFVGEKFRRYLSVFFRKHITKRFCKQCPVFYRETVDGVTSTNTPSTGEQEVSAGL
Assay: MCP-1 Receptor Binding Assay (I125-labeled MCP-1, THP-1 cell membranes)
Details: THP-1 membranes, 0.2 nM I125-labeled MCP-1
Procedure: Membranes used in the MCP-1 binding assay were prepared from THP-1 cells (human monocytic cell line source—American Type Culture Collection, Tumor Immunology Bank #202, Rockville, Md., accession no. ATCC TIB 202). Cells were harvested by centrifugation and washed twice in ice-cold PBS (phosphate-buffered saline) and the cell pellet was frozen at −80° C. in some cases. Cells were resuspended in ice-cold lysis buffer 5 mM HEPES (2-(4N-[2-hydroxyethyl]piperazin-1-yl)-N′-(2-ethanesulfonic acid), pH 7.5, 2 mM EDTA (ethylenediaminetetraacetic acid), 5 μg/mL each leupeptin, aprotinin, chymostatin (protease inhibitors), and 100 μg/mL PMSF (phenylmethane sulfonyl fluoride—also a protease inhibitor)) at a concentration of 5×10^7 cells/mL. The cell suspension was dounced 10-15 times using the B pestle (small pestle of tissue grinder—clearance is 0.07 mm; source—Fisher Scientific) on ice. Nuclei and debris were removed by centrifugation at 500-1000×g for 10 minutes at 4° C. The supernatant was transferred to a fresh tube and centrifuged at 25,000×g for 30 minutes at 4° C. The supernatant was aspirated and the pellet was resuspended in freezing buffer (10 mM HEPES, pH 7.5, 300 mM sucrose, 1 μg/mL each leupeptin, aprotinin, chymostatin, and 10 μg/mL PMSF) using a minihomogenizer until all clumps were resolved. Membranes were aliquoted and frozen at minus 70-85° C. until needed. Typical binding assays used 10-20 μg/well of total membrane protein as determined with a standard protein assay (e.g. Bradford protein assay, BioRad, Richmond, Calif.).
For binding, 10-20 μg of total membrane protein were included in the binding reaction along with 0.2 nM I^125-labeled MCP-1 (Amersham, Arlington Heights, Ill.) with or without unlabeled competitor MCP-1 (Peprotech, Rocky Hill, N.J.) (at 500 nM). Binding reactions were performed in a final volume of 100 μl in a binding buffer containing 10 mM HEPES, pH 7.2, 1 mM CaCl2, 5 mM MgCl2, 0.5% BSA (bovine serum albumin). After 30-60 minutes at room temperature, the binding reactions were filtered through GF/C filters (Whatman glass fiber filters, Type C) or GF/B unifilter plates (Packard) which had been pre-soaked with 0.3% polyethyleneimine and washed twice with binding buffer containing 0.5 M NaCl. Filters were dried and counted in a Beta-Plate scintillation counter using standard scintillation fluid. Final concentration of compound in the binding assay ranged from 0.05-100 μM. Compounds were dissolved in DMSO (dimethyl sulfoxide). Final concentrations of DMSO in the binding were kept constant at 0.5%.
IC50s were calculated using a non-linear 3-parameter logistic curve fit. IC50 means the concentration at which 50% inhibition is achieved. Negative controls contained the same amount of DMSO vehicle as used in wells containing compound. Positive control contained 250-500 nM cold competitor MCP-1 in DMSO vehicle. Non-specific binding (the level of bound ^125I-labeled MCP-1 in the presence of […] unlabeled MCP-1) was subtracted from all data prior to analysis.

Molecule	IC50
CN(CCN1CCCCC1)c1ccc(-c2nc3ccc(OCc4ccccc4)cc3[nH]2)cc1	15.4 µM
CCN(CC)CCN(CCN(CC)CC)c1ccc(-c2nc3cc(Cl)c(Cl)cc3[nH]2)cc1 [drawing 8]	11.1 µM
CN(CCN1CCCCC1)c1ccc(-c2nc3ccc(Oc4ccc(Cl)c(Cl)c4)cc3[nH]2)cc1	6.4 µM
CN(CCN1CCCCC1)c1ccc(-c2nc3cc(Sc4ccc(Cl)c(Cl)c4)ccc3[nH]2)cc1	5.1 µM
CN(CCN1CCCCC1)c1ccc(-c2nc3ccc(C(C)(C)C)cc3[nH]2)cc1	3.1 µM
CN(CCN1CCCCC1)c1ccc(-c2nc3ccccc3[nH]2)cc1	10.9 µM
c1ccc(-c2ccc3nc(-c4ccc(NCCN5CCCCC5)cc4)[nH]c3c2)cc1	11.9 µM
Cc1cc2nc(-c3ccc(N(C)CCN4CCCCC4)cc3)[nH]c2cc1C [drawing 14]	6.3 µM
CN(CCN1CCCCC1)c1ccc(-c2nc3ccc(-c4ccccc4)cc3[nH]2)cc1	15.1 µM
CN(CCN1CCCCC1)c1ccc(-c2cc3cc(Cl)ccc3[nH]2)cc1	9.9 µM
CN(CCN1CCCCC1)c1ccc(-c2nc3cc(Cl)c(Cl)cc3[nH]2)cc1 [drawing 9]	13.4 µM
CN(CCN1CCCCC1)c1ccc(-c2nc3ccc(C(F)(F)F)cc3[nH]2)cc1	15.5 µM
CN(CCN1CCCCC1)c1ccc(-c2nc3ccc(Cl)cc3[nH]2)cc1 [drawing 11]	5.9 µM
CN(CCN1CCCCC1)c1ccc(-c2nc3ccc(C(=O)c4ccccc4)cc3[nH]2)cc1	11.3 µM
CN(CCN1CCCCC1)Cc1ccc(-c2nc3cc(Cl)c(Cl)cc3[nH]2)cc1	3.2 µM
CCCCc1ccc2nc(-c3ccc(N(C)CCN4CCCCC4)cc3)[nH]c2c1	11.5 µM
CN(CCN1CCCCC1)c1ccc(-c2nc3cc(Cl)c(F)cc3[nH]2)cc1 [drawing 12]	9.6 µM
CN(CCN1CCCCC1)c1ccc(-c2nc3ccc(NCCCCCc4ccccc4)cc3[nH]2)cc1	6.7 µM
CN(CCN1CCCCC1)c1ccc(-c2nc3ccc(F)cc3[nH]2)cc1	8.6 µM
CCN(CC)CCN(C)c1ccc(-c2nc3cc(Cl)c(Cl)cc3[nH]2)cc1	6.8 µM
CN(CCN1CCCCC1)c1ccc(-c2nc3cc4c(cc3[nH]2)Cc2ccccc2-4)cc1	20.7 µM
Cc1ccc2nc(-c3ccc(N(C)CCN4CCCCC4)cc3)[nH]c2c1 [drawing 13]	8.7 µM
CN(CCN1CCCCC1)c1ccc(-c2nc3ccc(Cc4ccccc4)cc3[nH]2)cc1	4.3 µM
CN(CCN1CCCCC1)c1ccc(-c2nc3cc4ccccc4cc3[nH]2)cc1	12.1 µM
